Results published in patent US20250304623A1, “PEPTIDES FOR INTRACELLULAR DELIVERY” (UNIVERSIDADE DE SANTIAGO DE COMPOSTELA, priority 2022, published 2025).
*: point of attachment. NHNH2 = NN*

What was measured:
Type in all cases: cell-based
Hek293 cells = assay: RLuc pDNA delivery, robotic library screening, Hek293
[1] = system: Hek293 cells expressing EGFP; assay: Cas9-RNP delivery against EGFP (gene editing, plate reader), Hek293
Description: (§1) To generate an EGFP expressing HeLa cell line, HeLa cells were transfected with EGFP pDNA (pEGFP-C1, Clontech) and stable transfectants were selected with 400 μg/mL of G-418 (Millipore). Green clones were selected by epifluorescence microscopy and tested for EGFP expression stability through several passages. […] All other EGFP-expressing cell lines were obtained in a similar way from parent non-EGFP-expressing cell lines.
(§2) Cells expressing EGFP were seeded in a 96 well plate the day before the experiment at a concentration of 50,000 cell/mL (100 μL/w) in DMEM+10% FBS+1% Gln-Abt. For robotic library screening, the delivery of Cas9-RNP against EGFP (RNP designed to knock-out the gene encoding for the enhanced green fluorescent protein (EGFP)) was performed. For RNP assembly, 9.2 μL of crRNA and 9.2 μL of tracrRNA were mixed in 211.6 μL of Nuclease-Free Duplex Buffer (IDT), incubated for 5 min at 95° C. and slowly cooled at rt (see I. Lostalé-Seijo, et al. Peptide/Cas9 nanostructures for ribonucleoprotein cell membrane transport and gene edition, Chem. Sci., 2017). Cas9 protein was dissolved in DMEM at a final concentration of 4 μM and equal volumes of the RNA complex and Cas9 were mixed and incubated for 5 min at rt. 75 μL of the corresponding amphiphile concentrations were added to 5 μL of RNP at 2 μM. The mixture was shaken for 30 min at room temperature before the addition to the cells. The cell medium was aspirated, and cells were washed twice with PBS. Cells were covered with 30 μL of DMEM and 20 μL of the RNP/amphiphile complexes were added to the cells (final peptide concentrations=2.5, 5 and 10 μM; final Cas9-RNP concentration=50 nM) and incubated for 4 h. After the incubation, the medium was replaced by 100 μL of fresh DMEM supplemented with 10% FBS. The total EGFP fluorescence was quantified after 72 h in a plate reader (FIG. 2, Table 1 (right) and Table 6). All experiments were done in triplicate. […]
(§3) Tables 26-31 show the mean (triplicates) percentage of gene editing, accounted by GFP fluorescence intensity decrease (% of reduction), measured after the transfection of Cas9-RNP by different amphiphiles at different concentrations in a variety of cell lines. Background values, accounted by untreated control cells, were subtracted for processing.

HCT116 cells = assay: EGFP mRNA delivery, robotic library screening, HCT116
Description: Cells were seeded in a 96 well plate the day before the experiment at a concentration of 50,000 cell/mL (100 μL/w) in DMEM+10% FBS+1% Gln-Abt. For robotic library screening, the delivery of EGFP-mRNA (from TriLink, fully substituted with 5-methoxyuridine, capped and polyadenylated; TriLink, CleanCap® EGFP mRNA (5moU), ref. L-7201) in six different cell lines was performed. Amphiphilic molecule stock solutions were prepared in DMSO as described above and diluted in DMEM to afford a range of concentrations. The solutions of EGFP-mRNA/amphiphilic molecule complexes were freshly prepared prior to the transfection experiments. 35 μL of the corresponding amphiphile were added to 10 μL of a solution of EGFP-mRNA at 10 ng/μL in DMEM. The mixture was shaken for 30 min at room temperature before the addition to the cells. The cell medium was aspirated, and cells were washed with PBS twice. Cells were covered with 39 μL of DMEM and 11 μL of the complex's solution were added to the cells and incubated for 4 h (final concentration of peptide=2.5, 5 and 10 μM; final concentration of EGFP-mRNA=25 ng/well). After the incubation, the medium was replaced by 100 μL of fresh DMEM supplemented with 10% FBS. The total EGFP fluorescence was quantified after 72 h in a well plate reader. Amphiphile transfection efficiency was compared and normalized to Lipofectamine® MessengerMax efficiency (value of 1 in Tables 1-5 and 7; double underlined numbers). All experiments were done in triplicate.
Tables 1-7: RLuc (pDNA) or EGFP (mRNA) expression levels were normalized to Lipofectamine reagents (value=1) and expressed as fold-times signal increase. In the case of siRNA, the siRNA treated cells fluorescence was compared with siMOCK control fluorescence, while Cas9-RNP mediated knockout was measured against the fluorescence of untreated cells. In both siRNA and Cas9-RNP, values are expressed as % fluorescence reduction. Amphiphile concentration was 5 μM in all cases. All experiments were performed in triplicate.
Tables 14-19 show the mean (triplicates) fluorescence intensity measured after the transfection of EGFP mRNA by different amphiphiles at different concentrations in a variety of cell lines. Background fluorescence values, accounted by untreated control cells, were subtracted for processing.

[2] = system: HepG2 cells expressing EGFP; assay: Cas9-RNP delivery against EGFP (gene editing, plate reader), HepG2
Description: as §1, §2, §3

| Substance | mean luminescent intensity (RLuc pDNA) (Hek293 cells; Myristoleyl, 5 μM) | percentage of gene editing, GFP fluorescence intensity decrease (% of reduction) ([1]; Dodecanal, 5 μM) | percentage of gene editing, GFP fluorescence intensity decrease (% of reduction) ([1]; Dodecanal, 10 μM) | percentage of gene editing, GFP fluorescence intensity decrease (% of reduction) ([1]; Palmitoleyl, 5 μM) | mean fluorescence intensity (EGFP mRNA) (HCT116 cells; Myristoleyl, 2.5 μM) | mean fluorescence intensity (EGFP mRNA) (HCT116 cells; Petroselinyl, 2.5 μM) | mean fluorescence intensity (EGFP mRNA) (HCT116 cells; Petroselinyl, 5 μM) | mean fluorescence intensity (EGFP mRNA) (HCT116 cells; Petroselinyl, 10 μM) | percentage of gene editing, GFP fluorescence intensity decrease (% of reduction) ([2]; Dodecanal, 5 μM) | percentage of gene editing, GFP fluorescence intensity decrease (% of reduction) ([2]; Dodecanal, 10 μM) | percentage of gene editing, GFP fluorescence intensity decrease (% of reduction) ([2]; Myristoleyl, 5 μM) | percentage of gene editing, GFP fluorescence intensity decrease (% of reduction) ([2]; Myristoleyl, 10 μM) | percentage of gene editing, GFP fluorescence intensity decrease (% of reduction) ([2]; Palmitoleyl, 5 μM) | percentage of gene editing, GFP fluorescence intensity decrease (% of reduction) ([2]; Palmitoleyl, 10 μM) | percentage of gene editing, GFP fluorescence intensity decrease (% of reduction) ([2]; Petroselinyl, 5 μM) | mean luminescent intensity (RLuc pDNA) (Hek293 cells; Dodecanal, 15 μM) | mean luminescent intensity (RLuc pDNA) (Hek293 cells; Palmitoleyl, 5 μM) | mean luminescent intensity (RLuc pDNA) (Hek293 cells; Palmitoleyl, 10 μM) | mean luminescent intensity (RLuc pDNA) (Hek293 cells; Palmitoleyl, 15 μM) | percentage of gene editing, GFP fluorescence intensity decrease (% of reduction) ([1]; Oleyl, 10 μM) | further results |
| --- | --- | --- | --- | --- | --- | --- | --- | --- | --- | --- | --- | --- | --- | --- | --- | --- | --- | --- | --- | --- | --- |
| Ac-RRLK*RLK*RRLK*RL-NH2 [Peptide 13.3] | 368875 RLU | 18% | −18% | −7% | 2744 | 1178 | 1100 | 824 | −27% | −11% | −22% | 3% | −30% | −19% | −20% | – | – | – | – | – | mean luminescent intensity (RLuc pDNA) (Hek293 cells; Dodecanal, 5 μM): 295675 RLU; percentage of gene editing, GFP fluorescence intensity decrease (% of reduction) ([1]; Myristoleyl, 5 μM): −12%; percentage of gene editing, GFP fluorescence intensity decrease (% of reduction) ([1]; Myristoleyl, 15 μM): −48%; mean fluorescence intensity (EGFP mRNA) (HCT116 cells; Palmitoleyl, 2.5 μM): 1623 |
| Ac-RRHK*RLK*RRLK*RL-NH2 (Ac-RRHK(NHNH2)RLK(NHNH2)RRLK(NHNH2)RL-NH2; not fully specified; printed as Ac-RRHK*RLK*RRLK*RL-NH2; also: K*4,K*7,K*11: native or modified lysine (ε-amide to a linker)) [13(Leu-His)] | – | – | – | −8% | 2385 | – | 428 | 149 | – | −37% | – | 11% | −36% | 8% | −7% | 62749 RLU | 240629 RLU | 77558 RLU | 7639 RLU | −4% | mean luminescent intensity (RLuc pDNA) (Hek293 cells; Petroselinyl, 5 μM): 213228 RLU; mean luminescent intensity (RLuc pDNA) (Hek293 cells; Petroselinyl, 10 μM): 77709 RLU; mean luminescent intensity (RLuc pDNA) (Hek293 cells; Petroselinyl, 15 μM): 6882 RLU; percentage of gene editing, GFP fluorescence intensity decrease (% of reduction) ([1]; Myristoleyl, 10 μM): −16%; percentage of gene editing, GFP fluorescence intensity decrease (% of reduction) ([1]; Palmitoleyl, 10 μM): −33%; percentage of gene editing, GFP fluorescence intensity decrease (% of reduction) ([1]; Palmitoleyl, 15 μM): −39%; percentage of gene editing, GFP fluorescence intensity decrease (% of reduction) ([1]; Petroselinyl, 5 μM): 16%; percentage of gene editing, GFP fluorescence intensity decrease (% of reduction) ([1]; Petroselinyl, 10 μM): 7%; percentage of gene editing, GFP fluorescence intensity decrease (% of reduction) ([1]; Petroselinyl, 15 μM): −32%; mean fluorescence intensity (EGFP mRNA) (HCT116 cells; Palmitoleyl, 5 μM): 642; percentage of gene editing, GFP fluorescence intensity decrease (% of reduction) ([2]; Oleyl, 15 μM): −22%; percentage of gene editing, GFP fluorescence intensity decrease (% of reduction) ([2]; Palmitoleyl, 15 μM): 13%; percentage of gene editing, GFP fluorescence intensity decrease (% of reduction) ([2]; Petroselinyl, 10 μM): 9%; percentage of gene editing, GFP fluorescence intensity decrease (% of reduction) ([2]; Petroselinyl, 15 μM): 14% |
| Ac-RRLK*RLLRRLK*RLK*RRL-NH2 (Ac-RRLK(NHNH2)RLLRRLK(NHNH2)RLK(NHNH2)RRL-NH2; not fully specified; printed as Ac-RRLK*RLLRRLK*RLK*RRL-NH2; also: K*4,K*11,K*14: native or modified lysine (ε-amide to a linker)) [Peptide 17.3] | 158771 RLU | – | – | −19% | 570 | 373 | 168 | 66 | – | – | 6% | 38% | −2% | 31% | −2% | 3248 RLU | 10403 RLU | 1319 RLU | −644 RLU | – | mean luminescent intensity (RLuc pDNA) (Hek293 cells; Dodecanal, 10 μM): 12692 RLU; mean luminescent intensity (RLuc pDNA) (Hek293 cells; Myristoleyl, 10 μM): 4717 RLU; mean luminescent intensity (RLuc pDNA) (Hek293 cells; Myristoleyl, 15 μM): −110 RLU; percentage of gene editing, GFP fluorescence intensity decrease (% of reduction) ([1]; Palmitoleyl, 10 μM): −32%; percentage of gene editing, GFP fluorescence intensity decrease (% of reduction) ([1]; Palmitoleyl, 15 μM): −34%; percentage of gene editing, GFP fluorescence intensity decrease (% of reduction) ([1]; Petroselinyl, 5 μM): 2%; percentage of gene editing, GFP fluorescence intensity decrease (% of reduction) ([1]; Petroselinyl, 10 μM): −37%; mean fluorescence intensity (EGFP mRNA) (HCT116 cells; Dodecanal, 5 μM): 130; mean fluorescence intensity (EGFP mRNA) (HCT116 cells; Dodecanal, 10 μM): 312; mean fluorescence intensity (EGFP mRNA) (HCT116 cells; Myristoleyl, 5 μM): 247; percentage of gene editing, GFP fluorescence intensity decrease (% of reduction) ([2]; Palmitoleyl, 15 μM): 31%; percentage of gene editing, GFP fluorescence intensity decrease (% of reduction) ([2]; Petroselinyl, 10 μM): 39%; percentage of gene editing, GFP fluorescence intensity decrease (% of reduction) ([2]; Petroselinyl, 15 μM): 35% |
| Ac-RRLK*RLLRRLK*RL-NH2 (Ac-RRLK(NHNH2)RLLRRLK(NHNH2)RL-NH2; not fully specified; printed as Ac-RRLK*RLLRRLK*RL-NH2; also: K*4,K*11: native or modified lysine (ε-amide to a linker)) [Peptide 13.2] | – | −23% | −26% | – | – | – | – | – | −36% | −41% | – | – | – | – | – | – | – | – | – | −10% | mean luminescent intensity (RLuc pDNA) (Hek293 cells; Oleyl, 5 μM): 83689 RLU; mean luminescent intensity (RLuc pDNA) (Hek293 cells; Oleyl, 10 μM): 22447 RLU; mean luminescent intensity (RLuc pDNA) (Hek293 cells; Oleyl, 15 μM): 7233 RLU; percentage of gene editing, GFP fluorescence intensity decrease (% of reduction) ([1]; Oleyl, 15 μM): −13%; percentage of gene editing, GFP fluorescence intensity decrease (% of reduction) ([2]; Dodecanal, 15 μM): 9%; percentage of gene editing, GFP fluorescence intensity decrease (% of reduction) ([2]; Oleyl, 10 μM): −21%; percentage of gene editing, GFP fluorescence intensity decrease (% of reduction) ([2]; Oleyl, 15 μM): −33% |
